Laboratory results: ChEMBL document CHEMBL4842382, “Fragment-Based Discovery of Small Molecules Bound to T-Cell Immunoglobulin and Mucin Domain-Containing Molecule 3 (TIM-3)” (J Med Chem, 2021)
pIC50, pKd, pKi: −log10 of the molar value.

Target: T1, Hepatitis A virus cellular receptor 2 (Homo sapiens, UniProt Q8TDQ0)
T1 sequence (Q8TDQ0 whole entry): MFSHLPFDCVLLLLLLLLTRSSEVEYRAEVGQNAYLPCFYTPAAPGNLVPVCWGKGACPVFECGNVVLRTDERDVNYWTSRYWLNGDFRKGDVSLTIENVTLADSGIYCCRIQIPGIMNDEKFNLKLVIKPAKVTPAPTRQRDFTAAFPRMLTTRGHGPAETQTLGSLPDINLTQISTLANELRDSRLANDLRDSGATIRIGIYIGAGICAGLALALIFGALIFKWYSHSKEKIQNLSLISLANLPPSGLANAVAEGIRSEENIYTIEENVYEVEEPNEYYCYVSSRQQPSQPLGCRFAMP
Settings: not given

Compound	pKd
Sc1nc2cc(Cl)ccc2[nH]1	3.17
Cc1ccc(Nc2ncnc3c2cnn3C)cc1	3.07
CN(C)CCn1c(=S)[nH]c2ccccc2c1=O	3.28
O=C1CC(c2ccccc2)c2cc3c(cc2N1)OCO3 (stereo not drawn)	< 2.70
Cc1cc(-c2nc3ncccc3o2)ccc1N	3.34
Cc1cccc(Nc2cc(=O)n(C)c(=O)n2C)c1	2.85
Oc1nc2ccccc2c2nc(-c3ccccc3)nn12	< 2.70
Cc1nc2c3cc(-c4ccncc4C)c(Cl)cc3[nH]c(=O)n2n1	5.00

Target: T1, Hepatitis A virus cellular receptor 2
Test: Displacement of FITC-labelled 5-(((8-Chloro-9-(3-methylpyridin-4-yl)-5-oxo-5,6-dihydro-[1,2,4]triazolo[1,5-c]quinazolin-2-yl)methyl)carbamoyl)-2-(6-hydroxy-3-oxo-3H-xanthen-9-yl)benzoic acid probe from human TIM-3 IgV domain (residues 22 to 130) expressed in Escherichia coli BL21 (DE3) by FPA competition assay
Settings: not given

Compound	pIC50	pKi
Cc1nc2c3cc(-c4ccncc4C)c(Cl)cc3[nH]c(=O)n2n1	4.28	5.31

Test system: not listed separately
Test: Aqueous solubility of the compound
Type: physicochemical
Settings: buffer

Compound	solubility
Cc1nc2c3cc(Br)ccc3[nH]c(=O)n2n1	Insoluble
Cc1nc2c3cc(-c4ccncc4C)ccc3[nH]c(=O)n2n1	Insoluble
Oc1nc2ccccc2c2nc(-c3ccccc3)nn12	Insoluble
